According to patent US9359308B2, “Pyrazine kinase inhibitors” (Portola Pharmaceuticals, Inc., priority 2011, dated 2016):

Molecular target: T1, full length active recombinant SYK enzyme (Homo sapiens, UniProt P43405)
T1 construct: full length active recombinant SYK enzyme (Millipore, Calif.); purchased Millipore
Assay: Inhibition of Syk tyrosine phosphorylation activity (LANCE TR-FRET kinase assay)
Assay type: biochemical
Conditions: activity in the Syk assays, class symbols
How it was run: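 1 nM full-length active recombinant SYK phosphorylated 550 nM biotin-DEEDYESP-OH with 100 μM ATP in 50 mM Tris pH 7.5, 5 mM MgCl2, 1 mM DTT and 3% DMSO for 1 h at room temperature. After EDTA quench, Eu-anti-phosphotyrosine/SA-APC TR-FRET was read after 1 h. IC50s came from non-linear regression.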

SMILES | IC50 [nM]
NC(=O)c1ncc(N[C@@H]2CCCC(F)(F)[C@@H]2N)nc1Nc1cc(C2CC2)ns1 [Example 242, 5-((1R,2R)-2-amino-3,3-difluorocyclohexylamino)-3-(3-cyclopropylisothiazol-5-ylamino)pyrazine-2-carboxamide] | 1 to 10
C[C@@H](Nc1cnc(C(N)=O)c(Nc2cnc3ccc(F)cc3c2)n1)C(N)=O [Example 243, (R)-5-(1-amino-1-oxopropan-2-ylamino)-3-(6-fluoroquinolin-3-ylamino)pyrazine-2-carboxamide] | 1 to 10
CC(C)(C)[C@@H](Nc1cnc(C(N)=O)c(Nc2cc(C3CC3)ns2)n1)C(N)=O [Example 244, (R)-5-(1-amino-3,3-dimethyl-1-oxobutan-2-ylamino)-3-(3-cyclopropylisothiazol-5-ylamino)pyrazine-2-carboxamide] | 1 to 10
CC(C)(C)C[C@@H](Nc1cnc(C(N)=O)c(Nc2cnc3cccnc3c2)n1)C(N)=O [Example 246, (R)-3-(1,5-naphthyridin-3-ylamino)-5-(1-amino-4,4-dimethyl-1-oxopentan-2-ylamino)pyrazine-2-carboxamide] | 1 to 10
CC(C)(C)C[C@@H](Nc1cnc(C(N)=O)c(Nc2cncc(F)c2)n1)C(N)=O [Example 247, (R)-5-(1-amino-4,4-dimethyl-1-oxopentan-2-ylamino)-3-(5-fluoropyridin-3-ylamino)pyrazine-2-carboxamide] | 1 to 10
CN(C)C(=O)c1cc(Nc2nc(N[C@@H]3CCCC[C@@H]3N)cnc2C(N)=O)sn1 [Example 248, 5-(6-((1R,2S)-2-aminocyclohexylamino)-3-carbamoylpyrazin-2-ylamino)-N,N-dimethylisothiazole-3-carboxamide] | 1 to 10
CC[C@@H](Nc1cnc(C(N)=O)c(Nc2cc(C(=O)N(C)C)ns2)n1)C(N)=O [Example 249, (R)-5-(6-(1-amino-1-oxobutan-2-ylamino)-3-carbamoylpyrazin-2-ylamino)-N,N-dimethylisothiazole-3-carboxamide] | 100 to 1000
NC(=O)c1ncc(N[C@@H]2CCCC[C@@H]2N)nc1Nc1cc(CO)ns1 [Example 250, 5-((1R,2S)-2-aminocyclohexylamino)-3-(3-(hydroxymethyl)isothiazol-5-ylamino)pyrazine-2-carboxamide] | 1 to 10
CC[C@@H](Nc1cnc(C(N)=O)c(Nc2cc(CO)ns2)n1)C(N)=O [Example 251, (R)-5-(1-amino-1-oxobutan-2-ylamino)-3-(3-(hydroxymethyl)isothiazol-5-ylamino)pyrazine-2-carboxamide] | 10 to 100
NC(=O)c1ncc(N[C@@H]2CCCC[C@@H]2N)nc1Nc1snc2sccc12 [Example 252, 5-((1R,2S)-2-aminocyclohexylamino)-3-(thieno[2,3-c]isothiazol-3-ylamino)pyrazine-2-carboxamide] | < 1
COc1cncc(Nc2nc(N[C@H](CC(C)(C)C)C(N)=O)cnc2C(N)=O)c1 [Example 253, (R)-5-(1-amino-4,4-dimethyl-1-oxopentan-2-ylamino)-3-(5-methoxypyridin-3-ylamino)pyrazine-2-carboxamide] | 1 to 10
CC[C@@H](Nc1cnc(C(N)=O)c(Nc2cc(CN3CCOCC3)ns2)n1)C(N)=O [Example 254, (R)-5-(1-amino-1-oxobutan-2-ylamino)-3-(3-(morpholinomethyl)isothiazol-5-ylamino)pyrazine-2-carboxamide] | 100 to 1000
NC(=O)c1ncc(N[C@@H]2CCCC[C@@H]2N)nc1Nc1cc(CN2CCOCC2)ns1 [Example 255, 5-((1R,2S)-2-aminocyclohexylamino)-3-(3-(morpholinomethyl)isothiazol-5-ylamino)pyrazine-2-carboxamide] | 10 to 100
COc1cc(Nc2nc(N[C@H](CC(C)(C)C)C(N)=O)cnc2C(N)=O)ccn1 [Example 256, (R)-5-(1-amino-4,4-dimethyl-1-oxopentan-2-ylamino)-3-(2-methoxypyridin-4-ylamino)pyrazine-2-carboxamide] | 1 to 10
CC[C@@H](Nc1cnc(C(N)=O)c(Nc2cc(COC)ns2)n1)C(N)=O [Example 257, (R)-5-(1-amino-1-oxobutan-2-ylamino)-3-(3-(methoxymethyl)isothiazol-5-ylamino)pyrazine-2-carboxamide] | 10 to 100
NC(=O)c1ncc(N[C@@H]2CCCC[C@@H]2N)nc1Nc1cnn(C2CC2)c1 [Example 258, 5-((1R,2S)-2-aminocyclohexylamino)-3-(1-cyclopropyl-1H-pyrazol-4-ylamino)pyrazine-2-carboxamide] | 10 to 100
CC(C)(C)C[C@@H](Nc1cnc(C(N)=O)c(Nc2cnn(C3CC3)c2)n1)C(N)=O [Example 259, (R)-5-(1-amino-4,4-dimethyl-1-oxopentan-2-ylamino)-3-(1-cyclopropyl-1H-pyrazol-4-ylamino)pyrazine-2-carboxamide] | 10 to 100
CC[C@@H](Nc1cnc(C(N)=O)c(Nc2cnn(C3CC3)c2)n1)C(N)=O [Example 260, (R)-5-(1-amino-1-oxobutan-2-ylamino)-3-(1-cyclopropyl-1H-pyrazol-4-ylamino)pyrazine-2-carboxamide] | 100 to 1000

SMILES | IC50 [nM]
CC(C)(C)C[C@@H](Nc1cnc(C(N)=O)c(Nc2snc3sccc23)n1)C(N)=O [Example 261, (R)-5-(1-amino-4,4-dimethyl-1-oxopentan-2-ylamino)-3-(thieno[2,3-c]isothiazol-3-ylamino)pyrazine-2-carboxamide] | 1 to 10
NC(=O)c1ncc(N[C@@H]2CCCC[C@@H]2N)nc1Nc1cnn(-c2ccccc2)c1 [Example 262, 5-((1R,2S)-2-aminocyclohexylamino)-3-(1-phenyl-1H-pyrazol-4-ylamino)pyrazine-2-carboxamide] | < 1
NC(=O)c1ncc(N[C@@H]2CCCC[C@@H]2N)nc1Nc1ccnc(F)c1 [Example 263, 5-((1R,2S)-2-aminocyclohexylamino)-3-(2-fluoropyridin-4-ylamino)pyrazine-2-carboxamide] | 1 to 10
CC[C@@H](Nc1cnc(C(N)=O)c(Nc2ccnc(F)c2)n1)C(N)=O [Example 264, (R)-5-(1-amino-1-oxobutan-2-ylamino)-3-(2-fluoropyridin-4-ylamino)pyrazine-2-carboxamide] | 10 to 100
CC(C)(C)C[C@@H](Nc1cnc(C(N)=O)c(Nc2ccnc(F)c2)n1)C(N)=O [Example 265, (R)-5-(1-amino-4,4-dimethyl-1-oxopentan-2-ylamino)-3-(2-fluoropyridin-4-ylamino)pyrazine-2-carboxamide] | 1 to 10
Cc1cc(Nc2nc(N[C@H](CC(C)(C)C)C(N)=O)cnc2C(N)=O)sn1 [Example 266, (R)-5-(1-amino-4,4-dimethyl-1-oxopentan-2-ylamino)-3-(3-methylisothiazol-5-ylamino)pyrazine-2-carboxamide] | 10 to 100
NC(=O)c1ncc(N[C@@H]2CCCC[C@@H]2N)nc1Nc1snc2ccsc12 [Example 267, 5-((1R,2S)-2-aminocyclohexylamino)-3-(thieno[3,2-c]isothiazol-3-ylamino)pyrazine-2-carboxamide] | 1 to 10
CC[C@@H](Nc1cnc(C(N)=O)c(Nc2snc3ccsc23)n1)C(N)=O [Example 268, (R)-5-(1-amino-1-oxobutan-2-ylamino)-3-(thieno[3,2-c]isothiazol-3-ylamino)pyrazine-2-carboxamide] | 1 to 10
CC[C@@H](Nc1cnc(C(N)=O)c(Nc2snc3ccccc23)n1)C(N)=O [Example 269, (R)-5-(1-amino-1-oxobutan-2-ylamino)-3-(benzo[c]isothiazol-3-ylamino)pyrazine-2-carboxamide] | < 1
NC(=O)c1ncc(N[C@@H]2CCCC[C@@H]2N)nc1Nc1snc2ccccc12 [Example 270, 5-((1R,2S)-2-aminocyclohexylamino)-3-(benzo[c]isothiazol-3-ylamino)pyrazine-2-carboxamide] | < 1
CC[C@@H](Nc1cnc(C(N)=O)c(Nc2snc3sccc23)n1)C(N)=O [Example 271, (R)-5-(1-amino-1-oxobutan-2-ylamino)-3-(thieno[2,3-c]isothiazol-3-ylamino)pyrazine-2-carboxamide] | < 1
Cc1cccc(Nc2nc(N[C@@H]3CCCC[C@@H]3N)cnc2C(N)=O)c1 [Example 275, 5-((1R,2S)-2-aminocyclohexylamino)-3-(m-tolylamino)pyrazine-2-carboxamide] | < 1
NC(=O)c1ncc(N[C@@H]2CCCC[C@@H]2N)nc1Nc1ccc(-n2cccn2)cc1 [Example 276, 3-(4-(1H-pyrazol-1-yl)phenylamino)-5-((1R,2S)-2-aminocyclohexylamino)pyrazine-2-carboxamide] | 1 to 10
CN(C)C(=O)c1ccc(Nc2nc(N[C@@H]3CCCC[C@@H]3N)cnc2C(N)=O)cc1 [Example 277, 5-((1R,2S)-2-aminocyclohexylamino)-3-(4-(dimethylcarbamoyl)phenylamino)pyrazine-2-carboxamide] | 10 to 100
CN(C)C(=O)c1ccc(Nc2nc(N[C@@H]3CCCC[C@@H]3N)cnc2C(N)=O)cn1 [Example 278, 5-((1R,2S)-2-aminocyclohexylamino)-3-(6-(dimethylcarbamoyl)pyridin-3-ylamino)pyrazine-2-carboxamide] | 100 to 1000
CN(C)C(=O)c1ccc(Nc2nc(N[C@@H]3CCCC[C@@H]3N)cnc2C(N)=O)cc1Cl [Example 279, 5-((1R,2S)-2-aminocyclohexylamino)-3-(3-chloro-4-(dimethylcarbamoyl)phenylamino)pyrazine-2-carboxamide] | 10 to 100
NC(=O)c1ncc(N[C@@H]2CCCC[C@@H]2N)nc1Nc1ccc(C(=O)N2CCC2)nc1 [Example 280, 5-((1R,2S)-2-aminocyclohexylamino)-3-(6-(azetidine-1-carbonyl)pyridin-3-ylamino)pyrazine-2-carboxamide] | 10 to 100
CC(C)C[C@@H](Nc1cnc(C(N)=O)c(Nc2ccc(C(=O)N(C)C)cc2)n1)C(N)=O [Example 281, (R)-5-(1-amino-4-methyl-1-oxopentan-2-ylamino)-3-(4-(dimethylcarbamoyl)phenylamino)pyrazine-2-carboxamide] | 10 to 100
